One data set has as its system H1975 lung cancer cells. Nature of the data set: MTT assay, growth of H1975 lung cancer cells. The following applies: Homo sapiens. The data set is classed as cell-based. In general terms: Tetrazolium assays rely on reduction of a dye to a coloured formazan, in cell work by metabolically active cells.
The mark [1] stands for this setting: NCI-H1975, H1975, MTT, Table 2, read-out: IC50 against the growth of H1975 lung cancer cells.
[2] abbreviates: NCI-H1975, H1975 lung cancer cell line, MTT, Table 3, read-out: IC50 H1975.
[3] abbreviates: NCI-H1975, read-out: IC50 against the growth of H1975 lung cancer cells.

Molecules are shown by their SMILES. Like-named read-outs stand apart in the source and are kept apart here.

Data on 36 molecules can be found in US10765681B2 (Academia Sinica, priority 2016, dated 2020).

Broadly, the melting point is the temperature of the solid-liquid transition. `COc1ccc(-c2nc(C(N)=O)c3[nH]c(=O)n(-c4ccccc4OC)c3n2)cc1O` [Compound 5n, 2-(3-Hydroxy-4-methoxyphenyl)-9-(2-methoxyphenyl)-8-oxopurine-6-carboxamide] yielded a melting point of 319 to 321 °C.
The molecule `CCOc1ccc(-c2nc(C#N)c3nc(N)n(-c4ccccc4OC)c3n2)cc1` [Compound 33a, 8-Amino-2-(4-ethoxyphenyl)-9-(2-methoxyphenyl)purine-6-carbonitrile] displayed a melting point of 297 to 299 °C.
What is called IC50 is the concentration that gives 50% inhibition. Consider `CCOc1ccc(-c2nc(C(N)=O)c3nc(SCC(=O)N4CCN(C(=O)OC(C)(C)C)CC4)n(-c4ccccc4)c3n2)cc1` [Compound 11d, 2-(4-Ethoxyphenyl)-9-phenyl-8-{[(4-tert-butoxycarbonyl)piperazinocarbonyl]methylthio}purine-6-carb oxamide], for which the IC50 with H1975 lung cancer cells (setting [1]) came out at 1.8 µM.
On to `CCOc1ccc(-c2nc(C(N)=O)c3[nH]c(=O)n(-c4cccc(C(=O)NCCCCCN=[N+]=[N-])c4)c3n2)cc1` [Compound 8c, 2-(4-Ethoxyphenyl)-9-[3-(5-azidopentylcarbamoyl)]phenyl-8-oxopurine-6-carboxamide], for which, in the data set on H1975 lung cancer cells (setting [1]), the IC50 is 0.39 ± 0.01 µM.
For the molecule `CCOc1ccc(-c2nc(C#N)c3[nH]c(=O)n(-c4ccccc4OC)c3n2)cc1` [Compound 12a, 2-(4-Ethoxyphenyl)-9-(2-methoxyphenyl)-8-oxopurine-6-carbonitrile], the melting point was 288 to 290 °C.
On the same count and under the same terms, the figure for `CCOc1ccc(-c2nc(C(N)=O)c3nc(SC)n(-c4ccccc4)c3n2)cc1` [Compound 11a, 2-(4-Ethoxyphenyl)-8-(methylthio)-9-phenylpurine-6-carboxamide] is 309.7 to 311 °C (dec.).
As for `COc1ccc(-c2nc(C(=N)NO)c3[nH]c(=O)n(-c4ccccc4OC)c3n2)cc1O` [Compound 14f, 2-(3-Hydroxy-4-methoxyphenyl)-9-(2-methoxyphenyl)-8-oxopurine-6-(N-hydroxy)carboximidamide], the melting point lay in the range of 226 to 228 °C. Moreover, the IC50 in the data set on H1975 lung cancer cells (setting [1]) stood at 2.8 µM. The IC50 in the data set on H1975 lung cancer cells (setting [2]) was found to be 2.8 µM.
Regarding `CCOc1ccc(-c2nc(C(N)=O)c3nc(SCC(=O)OC)n(-c4ccccc4)c3n2)cc1` [Compound 11f, 2-(4-Ethoxyphenyl)-8-(methoxycarbonylmethylthio)-9-phenylpurine-6-carb oxamide], in the data set with H1975 lung cancer cells (setting [1]), the IC50 stood at 2.1 µM.
Same read-out and setting: under `CCOc1ccc(-c2nc(C(N)=O)c3[nH]c(=O)n(-c4cccc(C(=O)NCCCCCNC(=O)OC(C)(C)C)c4)c3n2)cc1` [Compound 8d, 2-(4-Ethoxyphenyl)-9-[3-(5-tert-butoxycarbonylamino)pentylcarbamoyl]phenyl-8-oxopurine-6-carboxamide] stands 15.5 ± 1.96 µM.
Molecule `C=CCn1oc(=O)nc1-c1nc(-c2ccc(OCC)cc2)nc2c1n(CC=C)c(=O)n2-c1ccccc1OC` [Compound 25a, 2-Allyl-3-[7-allyl-2-(4-ethoxyphenyl)-9-(2-methoxyphenyl)-8-oxopurin-6-yl]-1,2,4-oxadiazol-5-one] registered a melting point of 88 to 90 °C.
The same measure, in the same setting: the figure for `NC(=O)c1nc(-c2ccc(O)cc2)nc2c1nc(S)n2-c1ccccc1` is 361 to 363 °C; for `CCOC(=O)Oc1nc2c(C#N)nc(-c3ccc(OCC)cc3)nc2n1-c1ccccc1OC` [Compound 17a, 6-Cyano-2-(4-ethoxyphenyl)-9-(2-methoxyphenyl)purin-8-yl ethyl carbonate] it is 270 to 272 °C.
Same read-out and setting: under `CCOc1ccc(-c2nc(C(N)=O)c3[nH]c(=O)n(-c4cc(C(F)(F)F)cc(C(F)(F)F)c4)c3n2)cc1` [Compound 5m, 9-(3,5-Bis(trifluoromethyl)phenyl)-2-(4-ethoxyphenyl)-8-oxopurine-6-carboxamide] stands 288 to 290 °C; under `CCOc1ccc(-c2nc(C#N)c3nc(NC(=O)OC(C)(C)C)n(-c4ccccc4OC)c3n2)cc1` [Compound 34a, Tert-butyl (6-cyano-2-(4-ethoxyphenyl)-9-(2-methoxyphenyl)purin-8-yl)carbamate], 260 to 262 °C (dec.).
For `CCOc1ccc(-c2nc(C#N)c3[nH]c(=O)n(-c4cccc(C(=O)OC)c4)c3n2)cc1` [Compound 12c, 2-(4-Ethoxyphenyl)-9-(3-methoxycarbonylphenyl)-8-oxopurine-6-carbonitrile], the melting point was in the range of 297 to 299 °C.
As to `CCOc1ccc(-c2nc(C(=N)NO)c3[nH]c(=O)n(-c4cccc(C(=O)OC)c4)c3n2)cc1` [Compound 14c, 2-(4-Ethoxyphenyl)-9-(3-methoxycarbonylphenyl)-8-oxopurine-6-(N-hydroxy)carboximidamide], the melting point lay within 257 to 259 °C.
`COc1ccc(-c2nc(C#N)c3[nH]c(=O)n(-c4ccccc4OC)c3n2)cc1O` [Compound 12f, 2-(3-Hydroxy-4-methoxyphenyl)-9-(2-methoxyphenyl)-8-oxopurine-6-carbonitrile] displayed a melting point of 294 to 296 °C. Also, in the data set on H1975 lung cancer cells (setting [1]), the half-maximal inhibitory concentration (IC50) was found to be 25.8 µM. Further, the IC50 with H1975 lung cancer cells (setting [2]) stood at 25.8 µM.
For `CCOc1ccc(-c2nc(C#N)c3c(n2)n(-c2ccccc2OC)c(=O)n3Cc2ccccc2)cc1` [Compound 15c, 7-Benzyl-2-(4-ethoxyphenyl)-9-(2-methoxyphenyl)-8-oxopurine-6-carbonitrile], the melting point lay in the range of 164 to 166 °C.
Turning to `CCOc1ccc(-c2nc(C#N)c3nc(N4CCOCC4)n(-c4ccccc4OC)c3n2)cc1` [Compound 33b, 2-(4-Ethoxyphenyl)-9-(2-methoxyphenyl)-8-morpholinopurine-6-carbonitrile], the melting point lay in the range of 273 to 275 °C. For the same molecule, in the data set on H1975 lung cancer cells (setting [2]), the IC50 was 74 µM.
`COc1ccccc1-n1c(=O)[nH]c2c(C(N)=O)nc(-c3ccc(O)cc3)nc21` [Compound 5b, 2-(4-Hydroxyphenyl)-9-(2-methoxyphenyl)-8-oxopurine-6-carboxamide] displayed a melting point of 370.2 to 371.8 °C.
The same measure, in the same setting: the figure for `CCOc1ccc(-c2nc(C(N)=O)c3nc(S)n(-c4ccccc4)c3n2)cc1` [Compound 10a, 2-(4-Ethoxyphenyl)-9-phenyl-8-mercaptopurine-6-carboxamide] is 321.2 to 321.8 °C (dec.).
Consider `COc1ccc(-c2nc(C(N)=O)c3nc(S)n(-c4ccccc4)c3n2)cc1O` [Compound 10b, 2-(3-Hydroxy-4-methoxyphenyl)-8-mercapto-9-phenylpurine-6-carboxamide], for which the melting point is 368.9 to 369.7 °C (dec.). Further, the IC50 in the data set on H1975 lung cancer cells (setting [3]) was 0.24 ± 0.04 µM.
Regarding `CCOc1ccc(-c2nc(C#N)c3nc(SC(=O)OCc4ccccc4)n(-c4ccccc4)c3n2)cc1` [Compound 28a, 8-(Benzyloxycarbonylthio)-2-(4-ethoxyphenyl)-9-phenylpurine-6-carboxnitrile], the melting point was in the range of 179.2 to 180.4 °C.
The molecule `CCOc1ccc(-c2nc(C#N)c3nc(S)n(-c4ccccc4)c3n2)cc1` [Compound 27a, 2-(4-Ethoxyphenyl)-8-mercapto-9-phenylpurine-6-carboxnitrile] came in with a melting point of 278.5 to 280 °C.
In turn, `COC(=O)c1cccc(-n2c(=O)[nH]c3c(C(N)=O)nc(-c4ccc(OC)c(O)c4)nc32)c1` [Compound 5j, 2-(3-Hydroxy-4-methoxyphenyl)-9-(3-methoxycarbonylphenyl)-8-oxopurine-6-carboxamide] returned a melting point of 333.3 to 334.3 °C. Further, the IC50 in the data set on H1975 lung cancer cells (setting [3]) was determined as 0.35 ± 0.01 µM.
As to `CCOc1ccc(-c2nc(C(N)=O)c3nc(SCC(=O)O)n(-c4ccccc4)c3n2)cc1` [Compound 11g, 8-(Carboxymethylthio)-2-(4-ethoxyphenyl)-9-phenylpurine-6-carboxamide], the IC50 with H1975 lung cancer cells (setting [1]) amounted to 3.94 ± 0.06 µM.
Regarding `CCCCCCNC(=O)c1cccc(-n2c(=O)[nH]c3c(C(N)=O)nc(-c4ccc(OCC)cc4)nc32)c1` [Compound 8a, 2-(4-Ethoxyphenyl)-9-(3-hexylcarbamoyl)phenyl-8-oxopurine-6-carboxamide], the IC50 in the data set with H1975 lung cancer cells (setting [1]) was 0.49 ± 0.1 µM.
For the molecule `CCOc1ccc(-c2nc(C(N)=O)c3[nH]c(=O)n(-c4cccc([N+](=O)[O-])c4)c3n2)cc1` [Compound 5l, 2-(4-Ethoxyphenyl)-9-(3-nitrophenyl)-8-oxopurine-6-carboxamide], the melting point lay in the range of 322.8 to 324.3 °C.
As to `CCOc1ccc(-c2nc(C(N)=O)c3nc(SC(C)=O)n(-c4ccccc4)c3n2)cc1` [Compound 26a, 8-(Acetylthio)-2-(4-ethoxyphenyl)-9-phenylpurine-6-carboxamide], the half-maximal inhibitory concentration (IC50) in the data set on H1975 lung cancer cells (setting [1]) and with H1975 lung cancer cells (setting [2]) was 41.6 ± 11.6 µM in each case.
Turning to `CCCCCCCCCCCCNC(=O)c1cccc(-n2c(=O)[nH]c3c(C(N)=O)nc(-c4ccc(OCC)cc4)nc32)c1` [Compound 8b, 2-(4-Ethoxyphenyl)-9-(3-dodecylcarbamoyl)phenyl-8-oxopurine-6-carboxamide], the IC50 with H1975 lung cancer cells (setting [1]) was determined as 10.5 ± 0.25 µM.
On the same count and under the same terms, under `CCOc1ccc(-c2nc(C(N)=O)c3[nH]c(=O)n(-c4cccc(C(=O)O)c4)c3n2)cc1` [Compound 6e, 2-(4-Ethoxyphenyl)-9-(3-carboxy)phenyl-8-oxopurine-6-carboxamide] stands 7.91 ± 0.18 µM; under `CCCCSc1nc2c(C(N)=O)nc(-c3ccc(OCC)cc3)nc2n1-c1ccccc1` [Compound 11b, 8-(Butylthio)-2-(4-ethoxyphenyl)-9-phenylpurine-6-carboxamide], 6.37 ± 0.51 µM.
`C=CCn1c(=O)n(-c2ccccc2OC)c2nc(-c3ccc(OCC)cc3)nc(C#N)c21` came in with a melting point of 144 to 146 °C.
On the same count and under the same terms, the figure for `CCOc1ccc(-c2nc(C(N)=O)c3nc(S)n(-c4cc(C(F)(F)F)cc(C(F)(F)F)c4)c3n2)cc1` [Compound 10c, 9-(3,5-Bis(trifluoromethyl)phenyl)-2-(4-ethoxyphenyl)-8-mercaptopurine-6-carboxamide] is 299 to 301 °C; for `CCOc1ccc(-c2nc(C#N)c3c(n2)n(-c2ccccc2OC)c(=O)n3C)cc1` [Compound 15a, 2-(4-Ethoxyphenyl)-9-(2-methoxyphenyl)-7-methyl-8-oxopurine-6-carbonitrile] it is 235 to 237 °C.
In the case of `CCOc1ccc(-c2nc(C(N)=O)c3[nH]c(=O)n(-c4cccc(C(=O)NCCCCCNC(=O)CCCC[C@@H]5SC[C@@H]6NC(=O)N[C@@H]65)c4)c3n2)cc1` [Compound 8f], the IC50 with H1975 lung cancer cells (setting [3]) was determined as 26.3 ± 0.31 µM.
